Measurements as given in US8575091B1, “Amylin analogues and pharmaceutical compositions thereof” (Novo Nordisk A/S, priority 2012, dated 2013).
“Also recorded” adds a separate entry of the source. Each block holds one compound with its values, some of them ahead of it. Numbered stars: 1 amine (or outer) side, 2 acyl side, 3 side chain; on linkers, the order of the positions; unused ones are H or OH. Bridge positions count the residues as written; N and C are the ends. Side chains are listed from the residue outwards. Peptide text beside a SMILES is read from it. * marks the point of attachment. C20 diacid = O=C(O)CCCCCCCCCCCCCCCCCCC(=O)*; γGlu = O=C(O)[C@H](CCC(=O)[*:2])N[*:1]

What was measured:
Sprague-Dawley rats = experiment: Assay (XI) single subcutaneous administration, food intake monitored for 48 hours in rats; type: in vivo, rat; settings: single subcutaneous 30 nmol/kg
Procedure: Assay (XI)—Effect from Single Subcutaneous Administration of Analogue on […] in Rats
Male Sprague-Dawley rats (Taconic Europe, ˜250 g at test date) were acclimatized to reversed day light cycle (lights on from 10 PM to 10 AM) and single housing in online food intake monitoring system (Ellegaard MBRose, Denmark) prior to study start. Rats were divided in groups of five and subcutaneously dosed with test compound (30 nmol/kg) and food intake was monitored for 48 hours hereafter. Data are illustrated in graphs as mean±SEM.

Wistar rats = experiment: Assay (XII) single subcutaneous administration, plasma calcium in rats; type: in vivo, rat; settings: for Plasma calcium red (%) 0-12 h: single s.c., maximal reduction 0-12 h, compared to vehicle; for suppression of plasma calcium level relative to vehicle: single subcutaneous, over 24 hours
Procedure: Assay (XII)—Effect from Single Subcutaneous Administration of Analogue on Plasma Calcium in Rats
Male Wistar rats (Taconic Europe, ˜250 g at test date) were acclimatized to handling prior to the study. Rats were divided in groups of five and subcutaneously dosed with test compound at time=0. At time T=−15 min; 1 h, 2 h, 4 h, 7 h, 12 h, and 24 h a blood sample was obtained and heparin stabilized plasma was analysed for total calcium (Cobas, Hitachi). Data are illustrated in graphs as mean±SEM.

rat amylin receptor = molecular target: T1, rat amylin receptor (Rattus norvegicus, UniProt P32214+Q9JJ73); experiment: Assay (VI) binding to the rat amylin receptor; settings: rCTR bind IC50 divided by rAmylin-R bind IC50
T1 construct: expressed in transfected cells; host or cells: BHK tk'ts 13 (transient, FuGENE 6), membranes
T1 sequence (P32214 25-479 isoform P32214-2 limits assumed): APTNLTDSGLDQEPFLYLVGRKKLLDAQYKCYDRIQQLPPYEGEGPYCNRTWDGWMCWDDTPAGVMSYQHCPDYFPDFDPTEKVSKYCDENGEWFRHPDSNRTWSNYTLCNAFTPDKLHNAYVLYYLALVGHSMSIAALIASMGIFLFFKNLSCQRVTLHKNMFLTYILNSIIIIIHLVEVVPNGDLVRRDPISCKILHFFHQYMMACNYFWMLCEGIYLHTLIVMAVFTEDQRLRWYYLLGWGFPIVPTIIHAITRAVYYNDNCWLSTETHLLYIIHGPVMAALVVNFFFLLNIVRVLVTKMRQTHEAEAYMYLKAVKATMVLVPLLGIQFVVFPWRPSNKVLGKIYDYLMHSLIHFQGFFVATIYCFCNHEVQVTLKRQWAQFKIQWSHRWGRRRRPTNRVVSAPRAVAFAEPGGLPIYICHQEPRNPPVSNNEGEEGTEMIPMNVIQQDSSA
T1 sequence (Q9JJ73 23-147 partner): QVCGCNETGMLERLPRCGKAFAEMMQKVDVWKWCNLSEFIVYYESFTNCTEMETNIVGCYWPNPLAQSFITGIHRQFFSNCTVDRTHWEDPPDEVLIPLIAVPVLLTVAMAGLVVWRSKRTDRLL
In short: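 Binding as in the human amylin receptor binding assay, but with membranes from BHK tk'ts 13 cells transiently co-transfected with rat calcitonin receptor and rat RAMP 3 […]. Membranes were prepared from cells harvested about 48 hours after transfection.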

[1] = molecular target: T2, human calcitonin receptor (Homo sapiens, UniProt P30988); experiment: Assay (II)a functional assay, human calcitonin receptor (CRE luciferase, BHK cells);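 also: luminescence from a CRE-driven luciferase reporter, read by single photon counting after cells were exposed to test samples for 3 h at 37 °C under 5% CO2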; type: cell-based; settings: read-out: hCTR funct. EC50
T2 construct: expressed in transfected cells
T2 sequence (P30988 25-474): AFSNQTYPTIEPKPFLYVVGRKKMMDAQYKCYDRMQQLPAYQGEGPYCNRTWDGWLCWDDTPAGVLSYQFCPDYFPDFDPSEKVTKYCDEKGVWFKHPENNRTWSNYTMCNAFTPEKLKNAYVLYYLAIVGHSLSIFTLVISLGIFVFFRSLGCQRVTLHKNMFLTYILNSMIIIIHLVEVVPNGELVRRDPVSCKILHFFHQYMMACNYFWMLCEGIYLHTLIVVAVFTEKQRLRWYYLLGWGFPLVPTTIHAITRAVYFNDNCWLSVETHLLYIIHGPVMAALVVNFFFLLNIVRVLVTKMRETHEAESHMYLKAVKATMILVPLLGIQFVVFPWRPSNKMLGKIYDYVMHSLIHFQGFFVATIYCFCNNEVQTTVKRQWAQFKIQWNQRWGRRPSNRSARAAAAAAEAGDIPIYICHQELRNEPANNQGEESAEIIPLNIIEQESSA

[2] = molecular target: T3, human amylin receptor (amylin 3(a) receptor: human calcitonin receptor + RAMP-3) (Homo sapiens, UniProt O60896+P30988); experiment: Assay (II)a functional assay, human amylin receptor (CRE luciferase, BHK cells); type: cell-based; settings: functional assay, human amylin receptor; read-out: hAmylin-R funct. EC50
T3 construct: expressed in transfected cells
T3 sequence (P30988 25-474): T2 sequence (P30988 25-474)
T3 sequence (O60896 24-148 partner): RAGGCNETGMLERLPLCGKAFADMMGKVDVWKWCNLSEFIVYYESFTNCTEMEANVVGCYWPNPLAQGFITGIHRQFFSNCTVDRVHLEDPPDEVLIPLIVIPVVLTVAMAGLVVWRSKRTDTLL

[3] = molecular target: T2, human calcitonin receptor; experiment: Assay (VII) binding to the human calcitonin receptor (SPA, 125I-Calcitonin); settings: read-out: hCTR bind IC50;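 also: cell membranes coupled to SPA beads, competitive displacement read by scintillation counting, IC50 derived from a one-site competition fit as a measure of receptor affinity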
human amylin receptor = molecular target: T4, human amylin receptor (Homo sapiens, UniProt O60896+P30988); experiment: Assay (V) binding to the human amylin receptor (SPA, 125I-rat amylin); settings: human amylin receptor membranes, SPA; read-out: hAmylin-R bind IC50
T4 construct: expressed in transfected cells
T4 sequence (P30988 25-474): T2 sequence (P30988 25-474)
T4 sequence (O60896 24-148 partner): T3 sequence (O60896 24-148 partner)
In short: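 SPA competition binding on membranes from Amylin 3(a)/CRE-luc cells, 35 ng/μL membranes with 0.05 mg/well beads. Buffer 50 mM Hepes pH 7.4, 1 mM CaCl2, 5 mM MgCl2, 0.1% OA, 0.02% Tween20. IC50 from one-site competition fit as affinity measure.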

Structure (SMILES): CC(C)C[C@H](NC(=O)[C@H](CCCCN)NC(=O)CNC(=O)[C@H](CC(C)C)NC(=O)[C@@H](NC(=O)[C@@H]1CSSC[C@H](N)C(=O)N[C@@H](CO)C(=O)N[C@@H](CC(N)=O)C(=O)N[C@@H](CC(C)C)C(=O)N[C@@H](CO)C(=O)N[C@@H]([C@@H](C)O)C(=O)N1)C(C)C)C(=O)N[C@@H](CO)C(=O)N[C@@H](CCC(N)=O)C(=O)N[C@@H](CCC(=O)O)C(=O)N[C@@H](CC(C)C)C(=O)N[C@@H](Cc1c[nH]cn1)C(=O)N[C@@H](CCCCN)C(=O)N[C@@H](CC(C)C)C(=O)N[C@@H](CCC(N)=O)C(=O)N[C@H](C(=O)N[C@@H](Cc1ccc(O)cc1)C(=O)N1CCC[C@H]1C(=O)N[C@@H](CCCNC(=N)N)C(=O)N[C@H](C(=O)N[C@@H](CC(N)=O)C(=O)N[C@H](C(=O)NCC(=O)N[C@@H](CO)C(=O)NCC(=O)N[C@H](C(=O)N1CCC[C@H]1C(N)=O)[C@@H](C)O)[C@@H](C)O)[C@@H](C)O)[C@@H](C)O [salmon calcitonin, reference compound]
food intake monitored over 48 hours versus vehicle (Sprague-Dawley rats): reduction of food intake; also recorded: reduces food intake in rats
Plasma calcium red (%) 0-12 h (Wistar rats; 3 nmol/kg): 35%
Plasma calcium red (%) 0-12 h (Wistar rats; 30 nmol/kg): 39%

Ratio rCT/rAmylin binding (rat amylin receptor; Table 7b): 73.0
Ratio rCT/rAmylin binding (rat amylin receptor; Table 7c): 73.0
Ratio rCT/rAmylin binding (rat amylin receptor): 73.0
EC50 [1]: 2.83 nM
EC50 [2]: 0.172 nM
IC50 [3]: 10.3 nM
IC50 (human amylin receptor): 0.377 nM
Structure (SMILES): CC[C@H](C)[C@H](NC(=O)[C@H](C)NC(=O)CNC(=O)[C@H](Cc1ccccc1)NC(=O)[C@H](CC(N)=O)NC(=O)[C@@H]1CCCN1C(=O)[C@H](CO)NC(=O)[C@H](CO)NC(=O)[C@H](Cc1c[nH]cn1)NC(=O)[C@H](CCCNC(=N)N)NC(=O)[C@H](CC(C)C)NC(=O)[C@H](Cc1ccccc1)NC(=O)[C@H](CCC(=O)O)NC(=O)[C@H](C)NC(=O)[C@H](CC(C)C)NC(=O)[C@H](CCCNC(=N)N)NC(=O)[C@H](CCC(N)=O)NC(=O)[C@@H](NC(=O)[C@H](C)NC(=O)[C@@H]1CSSC[C@H](NC(=O)[C@@H](N)CCCCNC(=O)CC[C@H](NC(=O)CC[C@H](NC(=O)CCCCCCCCCCCCCCCCCCC(=O)O)C(=O)O)C(=O)O)C(=O)N[C@@H](CC(N)=O)C(=O)N[C@@H]([C@@H](C)O)C(=O)N[C@@H](C)C(=O)N[C@@H]([C@@H](C)O)C(=O)N1)[C@@H](C)O)C(=O)N1CCC[C@H]1C(=O)N[C@@H](CO)C(=O)N[C@@H](CO)C(=O)N[C@H](C(=O)N[C@@H](CC(N)=O)C(=O)N[C@H](C(=O)NCC(=O)N1CCC[C@H]1C(=O)N[C@@H](Cc1c[nH]cn1)C(=O)N[C@H](C(=O)N[C@@H](Cc1ccc(O)cc1)C(N)=O)[C@@H](C)O)C(C)C)[C@@H](C)O [Example 124] (H-K([γGlu-γGlu-C20 diacid])CNTATCATQRLAEFLRHSSPNFGAIPSSTNVGPHTY-NH2; disulfide 2-7)
Plasma calcium red (%) 0-12 h (Wistar rats; 10 nmol/kg): 3%
Plasma calcium red (%) 0-12 h (Wistar rats; 30 nmol/kg): 11%

Structure (SMILES): CC[C@H](C)[C@H](NC(=O)[C@H](C)NC(=O)CNC(=O)[C@H](Cc1ccccc1)NC(=O)[C@H](CC(N)=O)NC(=O)[C@@H]1CCCN1C(=O)[C@H](CO)NC(=O)[C@H](CO)NC(=O)[C@H](Cc1c[nH]cn1)NC(=O)[C@H](CCCNC(=N)N)NC(=O)[C@H](CC(C)C)NC(=O)[C@H](Cc1ccccc1)NC(=O)[C@H](CCC(=O)O)NC(=O)[C@H](C)NC(=O)[C@H](CC(C)C)NC(=O)[C@H](CCCNC(=N)N)NC(=O)[C@H](CCC(N)=O)NC(=O)[C@@H](NC(=O)[C@H](C)NC(=O)[C@@H]1CSSC[C@H](NC(=O)[C@@H](N)CCCCNC(=O)CC[C@H](NC(=O)CC[C@H](NC(=O)CCCCCCCCCCCCCCCCCCC(=O)O)C(=O)O)C(=O)O)C(=O)N[C@@H](CC(N)=O)C(=O)N[C@@H]([C@@H](C)O)C(=O)N[C@@H](C)C(=O)N[C@@H]([C@@H](C)O)C(=O)N1)[C@@H](C)O)C(=O)N1CCC[C@H]1C(=O)N[C@@H](CO)C(=O)N[C@@H](CO)C(=O)N[C@H](C(=O)N[C@@H](CC(N)=O)C(=O)N[C@H](C(=O)NCC(=O)N1CCC[C@H]1C(=O)N[C@@H](CCCNC(=N)N)C(=O)N[C@H](C(=O)N[C@@H](Cc1ccc(O)cc1)C(N)=O)[C@@H](C)O)C(C)C)[C@@H](C)O [Example 110] (H-K([γGlu-γGlu-C20 diacid])CNTATCATQRLAEFLRHSSPNFGAIPSSTNVGPRTY-NH2; disulfide 2-7)
food intake monitored over 48 hours versus vehicle (Sprague-Dawley rats): reduces food intake in rats
Plasma calcium red (%) 0-12 h (Wistar rats; 30 nmol/kg): 8%
suppression of plasma calcium level relative to vehicle (Wistar rats; 30 nmol/kg): None of the example compounds at 30 nmol/kg trigger a notable suppression of the calcium level

Structure (SMILES): CC[C@H](C)[C@H](NC(=O)[C@H](C)NC(=O)CNC(=O)[C@H](Cc1ccccc1)NC(=O)[C@H](CC(N)=O)NC(=O)[C@@H]1CCCN1C(=O)[C@H](CO)NC(=O)[C@H](CO)NC(=O)[C@H](Cc1c[nH]cn1)NC(=O)[C@H](CCCNC(=N)N)NC(=O)[C@H](CC(C)C)NC(=O)[C@H](Cc1ccccc1)NC(=O)[C@H](CC(N)=O)NC(=O)[C@H](C)NC(=O)[C@H](CC(C)C)NC(=O)[C@H](CCCNC(=N)N)NC(=O)[C@H](CCC(N)=O)NC(=O)[C@@H](NC(=O)[C@H](C)NC(=O)[C@@H]1CSSC[C@H](NC(=O)[C@@H](N)CCCCNC(=O)CC[C@H](NC(=O)CC[C@H](NC(=O)CCCCCCCCCCCCCCCCCCC(=O)O)C(=O)O)C(=O)O)C(=O)N[C@@H](CC(N)=O)C(=O)N[C@@H]([C@@H](C)O)C(=O)N[C@@H](C)C(=O)N[C@@H]([C@@H](C)O)C(=O)N1)[C@@H](C)O)C(=O)N1CCC[C@H]1C(=O)N[C@@H](CO)C(=O)N[C@@H](CO)C(=O)N[C@H](C(=O)N[C@@H](CC(N)=O)C(=O)N[C@H](C(=O)NCC(=O)N[C@@H](Cc1c[nH]cn1)C(=O)N[C@@H](CC(N)=O)C(=O)N[C@H](C(=O)N[C@@H](Cc1ccc(O)cc1)C(N)=O)[C@@H](C)O)C(C)C)[C@@H](C)O [Example 86] (H-K([γGlu-γGlu-C20 diacid])CNTATCATQRLANFLRHSSPNFGAIPSSTNVGHNTY-NH2; disulfide 2-7 (inferred); N-terminus and C-terminus assumed)
food intake monitored over 48 hours versus vehicle (Sprague-Dawley rats): reduces food intake in rats
Plasma calcium red (%) 0-12 h (Wistar rats; 30 nmol/kg): 0%
suppression of plasma calcium level relative to vehicle (Wistar rats; increasing doses (all doses tested)): None of the doses trigger a notable suppression of the calcium level
